Assay results as given in the NIST ThermoML archive (doi:10.1016/j.jct.2015.11.028).
Numbers after ± are expanded uncertainties.

Experiment: mn = molality of the nth substance listed, in mol/kg
Conditions: 298.15 K, 100 kPa, Liquid, Vibrating tube method

SMILES	mass density (m1 = 0.5) [kg/m3]	mass density (m1 = 2) [kg/m3]	mass density (m1 = 2.499) [kg/m3]	mass density (m1 = 1.5) [kg/m3]	further results
C[N+](C)(C)C[C@H](O)CC(=O)[O-] [(R)-3-hydroxy-4-(trimethylammonio)butanoate] + O					mass density (m1 = 0.8817): 1023.6 ± 0.21 kg/m3
[Cl-].[K+] [potassium chloride] + O	1019.83 ± 0.11	1081.48 ± 0.12	1100.25 ± 0.12		mass density (m1 = 0.9998): 1041.41 ± 0.11 kg/m3; mass density (m1 = 1.499): 1062.03 ± 0.12 kg/m3; mass density (m1 = 2.98): 1117.69 ± 0.13 kg/m3
[Br-].[Na+] [sodium bromide] + O	1035.42 ± 0.11	1142.48 ± 0.14		1107.94 ± 0.13	mass density (m1 = 0.9999): 1072.67 ± 0.12 kg/m3; mass density (m1 = 2.5): 1175.65 ± 0.14 kg/m3; mass density (m1 = 2.999): 1207.24 ± 0.15 kg/m3
[Cl-].[Na+] [sodium chloride] + O		1072.27 ± 0.12	1089.16 ± 0.12	1054.74 ± 0.12	mass density (m1 = 1): 1036.18 ± 0.11 kg/m3; mass density (m1 = 3): 1105.67 ± 0.13 kg/m3
